In ChEMBL document CHEMBL1781926, “Synthesis of 1-naphtylpiperazine derivatives as serotoninergic ligands and their evaluation as antiproliferative agents” (Eur J Med Chem, 2011):
Active and inactive are the calls of the source. The rule behind the calls is not given here.

What was measured:
PC-3 = assay: Antiproliferative activity against human PC3 cells assessed as growth inhibition after 96 hrs by SRB assay; format: functional, cell-based; settings: for IC50: PC-3, 96 h
[1] = biological target: T1, Adrenergic receptor alpha-2 (Rattus norvegicus, UniProt P22086+P19328+P22909); assay: Displacement [3H]yohimbine from alpha 2 adrenergic receptor in rat brain cortex homogenates after 30 mins by liquid scintillation counting; format: tissue-based
T1 sequence (P22086 whole entry): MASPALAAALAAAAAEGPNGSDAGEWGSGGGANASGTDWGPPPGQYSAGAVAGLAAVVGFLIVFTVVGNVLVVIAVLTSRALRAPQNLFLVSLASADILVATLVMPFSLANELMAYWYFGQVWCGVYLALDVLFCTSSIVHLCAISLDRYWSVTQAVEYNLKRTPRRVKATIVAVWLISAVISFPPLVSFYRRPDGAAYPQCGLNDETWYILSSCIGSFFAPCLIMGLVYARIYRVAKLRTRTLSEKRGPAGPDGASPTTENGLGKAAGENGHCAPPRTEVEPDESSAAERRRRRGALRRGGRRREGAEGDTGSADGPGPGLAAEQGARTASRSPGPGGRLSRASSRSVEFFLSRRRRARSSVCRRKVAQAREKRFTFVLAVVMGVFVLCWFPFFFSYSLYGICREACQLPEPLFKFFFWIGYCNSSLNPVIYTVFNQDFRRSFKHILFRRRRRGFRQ
T1 sequence (P19328 whole entry): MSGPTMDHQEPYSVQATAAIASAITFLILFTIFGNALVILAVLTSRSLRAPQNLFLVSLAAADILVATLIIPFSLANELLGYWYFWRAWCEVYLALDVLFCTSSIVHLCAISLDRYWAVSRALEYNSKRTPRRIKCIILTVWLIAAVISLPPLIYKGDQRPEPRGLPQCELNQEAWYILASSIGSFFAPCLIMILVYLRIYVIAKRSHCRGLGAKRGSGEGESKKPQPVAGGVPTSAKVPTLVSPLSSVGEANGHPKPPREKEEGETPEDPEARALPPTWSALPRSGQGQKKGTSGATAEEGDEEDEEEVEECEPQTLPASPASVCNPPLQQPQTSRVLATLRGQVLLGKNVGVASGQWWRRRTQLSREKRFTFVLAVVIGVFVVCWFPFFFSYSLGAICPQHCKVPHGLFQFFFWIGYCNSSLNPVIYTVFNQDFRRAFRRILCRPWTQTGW
T1 sequence (P22909 whole entry): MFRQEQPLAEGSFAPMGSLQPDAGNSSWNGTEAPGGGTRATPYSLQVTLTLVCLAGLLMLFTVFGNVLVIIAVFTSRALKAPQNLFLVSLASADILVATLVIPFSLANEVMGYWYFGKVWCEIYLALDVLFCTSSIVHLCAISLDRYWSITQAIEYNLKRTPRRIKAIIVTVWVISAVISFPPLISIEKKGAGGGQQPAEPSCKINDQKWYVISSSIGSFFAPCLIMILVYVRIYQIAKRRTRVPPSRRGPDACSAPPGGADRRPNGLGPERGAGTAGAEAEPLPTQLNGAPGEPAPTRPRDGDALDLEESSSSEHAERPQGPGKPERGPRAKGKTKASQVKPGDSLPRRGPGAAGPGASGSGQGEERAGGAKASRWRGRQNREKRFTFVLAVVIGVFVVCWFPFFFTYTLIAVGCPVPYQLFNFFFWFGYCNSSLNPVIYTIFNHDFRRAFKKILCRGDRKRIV

[2] = biological target: T2, 5-hydroxytryptamine receptor 2C (Rattus norvegicus, UniProt P08909); assay: Displacement of [3H]mesulergine from 5HT2C receptor in Sprague-Dawley rat frontal cortical homogenates after 15 mins
T2 sequence (P08909 whole entry): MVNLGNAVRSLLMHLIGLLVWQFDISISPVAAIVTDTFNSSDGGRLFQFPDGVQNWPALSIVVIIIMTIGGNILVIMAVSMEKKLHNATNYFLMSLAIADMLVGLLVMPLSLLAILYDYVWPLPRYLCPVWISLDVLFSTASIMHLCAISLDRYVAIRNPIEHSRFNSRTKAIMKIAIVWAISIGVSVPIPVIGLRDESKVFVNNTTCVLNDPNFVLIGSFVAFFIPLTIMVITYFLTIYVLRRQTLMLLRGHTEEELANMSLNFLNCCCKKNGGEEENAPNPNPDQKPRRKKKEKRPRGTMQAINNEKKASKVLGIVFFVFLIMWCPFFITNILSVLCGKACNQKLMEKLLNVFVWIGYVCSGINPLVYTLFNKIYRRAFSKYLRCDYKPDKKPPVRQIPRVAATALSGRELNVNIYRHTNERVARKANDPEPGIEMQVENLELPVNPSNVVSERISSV

[3] = biological target: 5-hydroxytryptamine receptor 2A (Rattus norvegicus, UniProt P14842); assay: Displacement of [3H]Ketanserin from 5HT2A receptor in Sprague-Dawley rat frontal cortical homogenates after 15 mins
Chain of 5-hydroxytryptamine receptor 2A (P14842 whole entry): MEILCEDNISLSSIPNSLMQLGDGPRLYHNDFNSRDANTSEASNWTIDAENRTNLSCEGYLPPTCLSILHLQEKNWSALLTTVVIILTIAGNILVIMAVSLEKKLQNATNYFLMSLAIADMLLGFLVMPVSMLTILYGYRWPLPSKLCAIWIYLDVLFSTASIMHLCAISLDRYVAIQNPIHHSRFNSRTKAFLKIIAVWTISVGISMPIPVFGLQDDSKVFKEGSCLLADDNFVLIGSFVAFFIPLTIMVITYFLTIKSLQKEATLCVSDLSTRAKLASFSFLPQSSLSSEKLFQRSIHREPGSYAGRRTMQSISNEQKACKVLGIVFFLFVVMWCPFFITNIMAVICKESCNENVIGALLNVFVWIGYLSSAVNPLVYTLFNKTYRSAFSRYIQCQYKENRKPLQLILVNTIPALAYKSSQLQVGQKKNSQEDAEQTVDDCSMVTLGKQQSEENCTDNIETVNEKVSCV

[4] = biological target: T3, 5-hydroxytryptamine receptor 1A (Rattus norvegicus, UniProt P19327); assay: Displacement of [3H]8-OH-DPAT from 5HT1A receptor in Sprague-Dawley rat brain cortex homogenates after 30 mins by liquid scintillation counting; format: tissue-based
T3 sequence (P19327 whole entry): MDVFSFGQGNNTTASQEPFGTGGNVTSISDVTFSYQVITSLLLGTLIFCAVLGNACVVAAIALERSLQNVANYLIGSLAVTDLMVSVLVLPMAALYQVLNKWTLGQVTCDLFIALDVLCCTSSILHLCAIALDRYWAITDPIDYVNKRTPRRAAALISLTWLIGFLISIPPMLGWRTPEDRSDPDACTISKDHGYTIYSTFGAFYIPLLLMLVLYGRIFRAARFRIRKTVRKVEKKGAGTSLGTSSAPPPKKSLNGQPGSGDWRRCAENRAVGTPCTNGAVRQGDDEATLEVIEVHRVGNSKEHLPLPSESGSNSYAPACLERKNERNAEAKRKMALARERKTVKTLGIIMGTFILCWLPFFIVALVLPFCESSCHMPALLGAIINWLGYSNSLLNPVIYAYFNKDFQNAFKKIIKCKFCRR

With `O=c1c2ccccc2nnn1CCN1CCN(c2cccc3ccccc23)CC1` the “growth inhibition (GI)” value (PC-3) was “Dose-dependent effect”, the IC50 (PC-3) was 10600 nM and the Ki [1] was 1880 nM. The Ki ([2]; read-out: Ki) was over 10000 nM and the Ki [3] was 5.29 nM.
With `O=C1C2C3C=CC(C3)C2C(=O)N1OCCN1CCN(c2cccc3ccccc23)CC1` (configuration not stated) the IC50 (PC-3) was 47700 nM, the Ki [1] was 1200 nM and the Ki [2] was “Not Active”. The Ki [4] was 1.58 nM and the Ki [3] was 113 nM.
For `O=c1c2ccccc2nnn1CCCN1CCN(c2cccc3ccccc23)CC1`, the “growth inhibition (GI)” value (PC-3) was “Dose-dependent effect”, the IC50 (PC-3) was 10500 nM and the Ki [1] was 3600 nM. It also gave a Ki ([2]; read-out: Ki) of over 10000 nM, a Ki [4] of 7.79 nM and a Ki [3] of 127 nM.
`O=c1c2ccccc2nnn1OCCN1CCN(c2cccc3ccccc23)CC1` was tested, and the “growth inhibition (GI)” value (PC-3) was “inactive”, the Ki [1] was over 10000 nM and the Ki [2] was “Not Active”. The Ki [4] was over 10000 nM and the Ki [3] was 1320 nM.
For `O=C1C2C3C=CC(C3)C2C(=O)N1OCCCN1CCN(c2cccc3ccccc23)CC1` (configuration not stated), the “growth inhibition (GI)” value (PC-3) was “Dose-dependent effect”, the IC50 (PC-3) was 13000 nM and the Ki [1] was 189 nM. The Ki [2] was “Not Active”, the Ki [4] was 0.293 nM and the Ki [3] was 91.8 nM.
With `N#C/N=C(\NCCCN1CCN(c2cccc3ccccc23)CC1)c1ccccn1` the IC50 (PC-3) was 23800 nM, the Ki [1] was over 10000 nM and the Ki [2] was “Not Active”. The Ki [4] was 5.85 nM and the Ki [3] was 224 nM.
For `O=c1c2ccccc2nnn1OCCCN1CCN(c2cccc3ccccc23)CC1`, the IC50 (PC-3) was 12400 nM, the Ki [1] was over 10000 nM and the Ki [2] was “Not Active”. It also gave a Ki [4] of over 10000 nM and a Ki [3] of 721 nM.
